Assay results as given in patent publication EP0565593B1, “REDUCING PESTICIDAL INTERACTIONS IN CROPS” (priority 1990, dated 1992).
Several values for one entry are separate records, joined by “and”; a condition that tells them apart may be missing. Equal values may be shown once. Read-outs that look alike come from different tables or passages of the source.

How the values were obtained:
Corn [1] = test: Greenhouse test Procedure VII: biocide and antidote in furrow, herbicide POE (Examples 39-42, 48-50, 56-58; Tables 38-41, 47-49, 55-57); assay type: in vivo
Outline: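 Corn seed was planted in greenhouse pots, with COUNTER 15G insecticide plus antidote granules applied in-furrow (e.g. 1.1 + 0.37 mg a.i./cm, or 227 g/305 m with acetone-applied safeners). About five days later, herbicides in water with 0.25% v/v X-77 were track-sprayed post-emergence at 187 L/ha. Plant response was scored eight days afterward, with two to four replicates.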

Corn [2] = conditions: for antidote activity: COUNTER with BEACON, PURSUIT (POE) or XRD-498 (PPI), Tables 29-37; for relieving corn injury, comparison: Example 29, COUNTER/PURSUIT negative synergy
Corn [3] = tested on: Corn
[4] = COUNTER 15G + BEACON/co-herbicide combinations, Example 56
[5] = in-furrow antidote, COUNTER 15G + sulfonamide herbicides, Table 41
[6] = DIAZINON + Herbicides 1, 21, 18, Example 53
[7] = malathion + Herbicides 1, 21, 18, Example 54

`CC1(C)OC(c2ccco2)CN1C(=O)C(Cl)Cl` (centres unmarked) [Antidote No. 1, Oxazolidine, 3-(dichloroacetyl)-2,2-dimethyl-5-(2-furanyl)-] was tested, and the “corn injury” value (Corn [1]; [4]) was “reduced corn injury”, the “safening, comparison” value (Corn [1]; COUNTER/ACCENT, 160 ratio, Example 50) was “more effective than MON-7400” and the “corn injury” value (Corn [1]; [5]) was “significantly reduced”. For the same compound, the “antidote activity” value (Corn [2]) was “most active antidote”, the “relieving corn injury, comparison” value (Corn [2]) was “more active than Antidote No. 28” and the “safening” value (Corn [3]; [6]) was “Effective safening”.

In the case of `O=C(OCc1ccccc1)c1sc(Cl)nc1C(F)(F)F` [Antidote No. 7, 5-Thiazolecarboxylic acid, 2-chloro-4-(trifluoromethyl)-, (phenylmethyl) ester], the “corn injury” value (Corn [1]; [4]) is reported as “reduced corn injury”, the “corn injury” value (Corn [1]; [5]) is reported as “significantly reduced” and the “antidote activity” value (Corn [2]) is reported as “slightly more active than other thiazoles tested”. The “safening” value (Corn [3]; [7]) was “moderate to high degrees of safening”.

For `COC(=O)COC(c1ccccc1)c1ccccc1` [Antidote No. 12, Acetic acid, (diphenylmethoxy)-, methyl ester], the “corn injury” value (Corn [1]; [4]) was “reduced corn injury”, the “safening of corn injury” value (Corn [1]; COUNTER 15G + sulfonamide herbicides POE, Table 41) was 92-100% and the “safening effects” value (Corn [1]; COUNTER 15G in furrow, POE sulfonylurea herbicides, Tables 38, 39) was “highest and most consistent safening effects”. For the same compound, the “safener efficacy” value (Corn [1]; COUNTER + PURSUIT/co-herbicide tank mixtures, Example 58) was “most efficacious safener”, the “antidote efficacy” value (Corn [1]; imidazolinone herbicides + COUNTER 15G, Table 40) was “most efficacious antidote” and the “corn injury” value (Corn [1]; [5]) was “significantly reduced”. The “relieving corn injury, comparison” value (Corn [2]) was “more active than Antidote No. 28”, the “safening” value (Corn [3]; [6]) was “Effective safening” and the “safening” value (Corn [3]; [7]) was “moderate to high degrees of safening”.

`COC(=O)c1c(Cl)nn(C)c1S(=O)(=O)NC(=O)Nc1nc(OC)cc(OC)n1` [Herbicide No. 1, N-[(4,6-dimethoxypyrimidin-2-yl)aminocarbonyl]-3-chloro-4-methoxycarbonyl-5-sulfonamide, reference compound] was tested, and the “% Inhibition Corn” value (Corn [3]; Herb. […], PPI, 13 days after planting) was 70%, the “% Inhibition Corn” value (Corn [3]; Herbicide No. 1 0.0175 Kg/Ha PPI alone, Table 19) was 5% and the “% Inhibition Corn” value (Corn [3]; Herbicide No. 1 0.0175 Kg/Ha PPI alone, Table 20) was 0%. For the same compound, the “% Inhibition Corn” value (Corn [3]; Herbicide No. 1 0.0175 Kg/Ha PPI alone, Table 21) was 0%, the “% Inhibition Corn” value (Corn [3]; Herbicide No. 1 0.0175 Kg/Ha PPI alone, Table 22) was 0% and the corn injury (Corn [3]; MON-12000 0.14 kg/ha with the OP insecticides at 8.96 kg/ha) was 45-50%. The corn injury (Corn [3]; MON-12000 0.14 kg/ha without insecticide, Examples 20-23) was 0-5%, the “% Inhibition Corn” value (Corn [3]; Table 53, Herbicide No. 1, rate printed as '-', where applied Biocide No. 7 8.96 kg/Ha and antidote 4.48 Kg/Ha, all PPI, observed 13 days after treatment) was 5% and the “% Inhibition Corn” value (Corn [3]; Table 54, Herbicide No. 1, rate printed as '-', where applied Biocide No. 6 8.96 kg/Ha and antidote 4.48 Kg/Ha, all PPI, observed 14 days after PPI initiation) was 5%. The “% Inhibition Corn” value (Corn [3]; in vivo) was 50% and 45%.

For `CC1(C)OC(c2ccco2)CN1C(=O)C(Cl)Cl` (centres unmarked) [compound 1], the “% Inhibition Corn” value (Corn [1]; Antidote + Biocide No. 1 in furrow, Herbicide No. 1 0.14 Kg/Ha POE, 8 days after POE) was 15%, the “% Inhibition Corn” value (Corn [1]; Antidote + Biocide No. 1 in furrow, Herbicide No. 4 0.17 Kg/Ha POE, 8 days after POE) was 10% and the “% Inhibition Corn” value (Corn [1]; Antidote + Biocide No. 1 in furrow, Herbicide No. 5 0.07 Kg/Ha POE, 8 days after POE) was 15%. For the same compound, the “% Inhibition Corn” value (Corn [1]; Antidote + Biocide No. 1 in furrow, Herbicide No. 6 0.01 Kg/Ha POE) was 15%, the “% Inhibition Corn” value (Corn [1]; Antidote + Biocide No. 1 in furrow, Herbicide No. 7 0.56 Kg/Ha POE, 8 days after POE) was 10% and the “% Inhibition Corn” value (Corn [1]; Antidote + Biocide No. 1 in furrow, Herbicide No. 9 0.009 Kg/Ha POE) was 10%. For the same compound, the “% Inhibition Corn” value (Corn [1]; Antidote + Biocide No. 1 in furrow, Herbicide No. 10 0.002 Kg/Ha POE, 8 days after POE) was 15%, the “% Inhibition Corn” value (Corn [1]; Antidote + Biocide No. 1 in furrow, Herbicide No. 15 0.0044 Kg/Ha POE, 8 days after POE) was 10% and the “% Inhibition Corn” value (Corn [1]; Antidote + Biocide No. 1 in furrow, Herbicide No. 16 0.01 Kg/Ha POE) was 20%. The “% Inhibition Corn” value (Corn [1]; Antidote + Biocide No. 1 in furrow, Herbicide No. 18 0.0044 Kg/Ha POE) was 15%, the “% Inhibition Corn” value (Corn [1]; Antidote + Biocide No. 1 in furrow, Herbicide No. 19 0.28 Kg/Ha POE) was 20% and the “% Inhibition Corn” value (Corn [1]; Antidote + Biocide No. 1 in furrow, Herbicide No. 21 0.14 Kg/Ha POE) was 20%. For the same compound, the “% Inhibition Corn” value (Corn [1]; Antidote + Biocide No. 1 in furrow, Herbicide No. 23 0.0006 Kg/Ha POE) was 20%, the “% Inhibition Corn” value (Corn [1]; C (COUNTER) + antidote in furrow, C:A Ratio 20, ACCENT 0.56 Kg/Ha POE) was 10% and the “% Inhibition Corn” value (Corn [1]; C (COUNTER) + antidote in furrow, C:A Ratio 20, BEACON 0.28 Kg/Ha POE) was 5%. For the same compound, the “% Inhibition Corn” value (Corn [1]; C (COUNTER) + antidote in furrow, C:A Ratio 40, ACCENT 0.56 Kg/Ha POE) was 10%, the “% Inhibition Corn” value (Corn [1]; C (COUNTER) + antidote in furrow, C:A Ratio 40, BEACON 0.28 Kg/Ha POE) was 5% and the “% Inhibition Corn” value (Corn [1]; C (COUNTER) + antidote in furrow, C:A Ratio 80, ACCENT 0.56 Kg/Ha POE) was 10%. For the same compound, the “% Inhibition Corn” value (Corn [1]; C (COUNTER) + antidote in furrow, C:A Ratio 80, BEACON 0.28 Kg/Ha POE) was 10%, the “% Inhibition Corn” value (Corn [1]; C (COUNTER) + antidote in furrow, C:A Ratio 160, ACCENT 0.56 Kg/Ha POE) was 15% and the “% Inhibition Corn” value (Corn [1]; C (COUNTER) + antidote in furrow, C:A Ratio 160, BEACON 0.28 Kg/Ha POE) was 15%. The “% Inhibition Corn” value (Corn [1]; Herbicide No. 1 0.14 Kg/Ha POE + Biocide No. 1 in furrow, no antidote, 8 days after POE) was 35%, the “% Inhibition Corn” value (Corn [1]; Herbicide No. 1 0.14 Kg/Ha POE alone, 8 days after POE) was 0% and the “% Corn Inhibition C:A Ratios 5” value (Corn [1]; Herbicide No. 8 0.28 Kg/Ha POE + COUNTER 15G 227 g/305 m + antidote in furrow, C:A ratio 5) was 3%. The “% Corn Inhibition C:A Ratios 10” value (Corn [1]; Herbicide No. 8 0.28 Kg/Ha POE + COUNTER 15G 227 g/305 m + antidote in furrow, C:A ratio 10) was 3%, the “% Corn Inhibition C:A Ratios 20” value (Corn [1]; Herbicide No. 8 0.28 Kg/Ha POE + COUNTER 15G 227 g/305 m + antidote in furrow, C:A ratio 20) was 0% and the “% Corn Inhibition C:A Ratios 40” value (Corn [1]; Herbicide No. 8 0.28 Kg/Ha POE + COUNTER 15G 227 g/305 m + antidote in furrow, C:A ratio 40) was 0%. The “% Corn Inhibition C:A Ratios 80” value (Corn [1]; Herbicide No. 8 0.28 Kg/Ha POE + COUNTER 15G 227 g/305 m + antidote in furrow, C:A ratio 80) was 3%, the “% Corn Inhibition C:A Ratios 160” value (Corn [1]; Herbicide No. 8 0.28 Kg/Ha POE + COUNTER 15G 227 g/305 m + antidote in furrow, C:A ratio 160) was 13% and the “safener activity” value (Corn [2]; ACCENT POE + OP insecticides PPI, Tables 11-14) was “most active”. For the same compound, the “% Inhibition 5 DAP Corn” value (Corn [2]; Antidote 4.48 + Biocide No. 1 8.96 Kg/Ha PPI, Herb. No. 8 0.07, 5 DAP, before herbicide application) was 10%, the “% Inhibition 13 DAP Corn” value (Corn [2]; Antidote 4.48 + Biocide No. 1 8.96 Kg/Ha PPI, Herb. No. 8 0.07 POE, 13 DAP) was 25% and the “% Inhibition Corn” value (Corn [2]; Antidote 4.48 + Biocide No. 1 8.96 Kg/Ha PPI, Herbicide No. 7 0.28 POE, 13 days after planting) was 20%. For the same compound, the “% Inhibition 5 DAP Corn” value (Corn [2]; Herb. […], 5 DAP, before herbicide application) was 0%, the “% Inhibition Corn” value (Corn [2]; Table 14: Herbicide No. 7 (ACCENT) 0.84 Kg/Ha POE + Biocide No. 2 8.96 Kg/Ha PPI + antidote 4.48 Kg/Ha PPI, 13 days after planting, 8 days after herbicide) was 5% and the “% Inhibition Corn” value (Corn [2]; […], 13 days after planting, 8 days after herbicide) was 5%. For the same compound, the “% Inhibition Corn” value (Corn [2]; […], observed 9 days later (Table 29)) was 10%, the “% Inhibition Corn” value (Corn [2]; […], observed 9 days later (Table 30)) was 35% and the “% Inhibition Corn” value (Corn [2]; […], observed 10 days after herbicide application) was 55%. For the same compound, the “% Inhibition 5 DAP Corn” value (Corn [2]; in vivo) was 30%, the “% Inhibition 13 DAP Corn” value (Corn [2]; in vivo) was 20% and the “activity in reducing corn injury” value (Corn [2]; primisulfuron POE + biocides PPI, Tables 8-10) was “most active”. The “safening activity” value (Corn [3]; XRD-498 + OP insecticides, Examples 24-27) was “Safening activity was observed”, the “% Inhibition Corn” value (Corn [3]; […], PPI, 13 days after PPI (Table 31)) was 25% and the “reducing corn injury, comparison” value (Corn [3]; in vivo) was “superior to No. 28”.
